IC50 data for eleven molecules are collected here from PubChem BioAssay AID624167 (Sanford-Burnham Center for Chemical Genomics, 2012).

Each structure is given as a SMILES string. Activity calls are given as the source filed them.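 How the source made its calls: active means mean IC50 for reducing PEG3 promoter reporter signal at or below a set limit, with IC50 above the limit in both counter screens; inactive means the rest, including counter screen hits.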 Bounds are passed on as bounds.

Assay [1] can be described thus: inhibition of PEG-3 promoter-driven reporter – cell-based, HeLa, luciferase, CREF/GAPDH counter-screen panel, dose response (AID 624167). As to conditions: CREF/GAPDH counter-screens; GAPDH; mean of runs.
The next assay deals with GAPDH. Described as above. The settings on record: CREF/GAPDH counter-screens.
In assay [2] the target is PEG-3 (UniProt Q6IN02). Described as above. As to conditions: HeLa PEG-Prom luciferase reporter, overnight, CREF/GAPDH counter-screens, mean of runs.
PEG-3 (UniProt Q6IN02), sequence (Q6IN02 whole entry, looked up): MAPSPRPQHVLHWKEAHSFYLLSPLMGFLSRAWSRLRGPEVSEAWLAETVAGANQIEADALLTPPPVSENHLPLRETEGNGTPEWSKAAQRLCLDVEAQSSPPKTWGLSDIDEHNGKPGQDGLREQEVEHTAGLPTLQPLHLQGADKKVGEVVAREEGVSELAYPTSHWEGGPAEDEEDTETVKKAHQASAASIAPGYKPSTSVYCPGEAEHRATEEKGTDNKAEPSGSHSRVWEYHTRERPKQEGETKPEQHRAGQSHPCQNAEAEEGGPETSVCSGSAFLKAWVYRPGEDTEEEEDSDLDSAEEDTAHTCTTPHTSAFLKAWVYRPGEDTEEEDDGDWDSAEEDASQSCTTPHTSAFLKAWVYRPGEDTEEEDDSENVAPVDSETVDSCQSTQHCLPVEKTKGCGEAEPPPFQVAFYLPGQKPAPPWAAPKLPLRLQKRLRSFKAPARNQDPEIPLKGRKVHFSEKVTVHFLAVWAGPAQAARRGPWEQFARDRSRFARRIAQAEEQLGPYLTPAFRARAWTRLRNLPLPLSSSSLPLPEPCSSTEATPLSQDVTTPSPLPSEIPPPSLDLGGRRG
Assay [3] deals with PEG-3. The description is as above. The settings on record: HeLa PEG-Prom luciferase reporter, overnight, CREF/GAPDH counter-screens.
Another assay deals with Rat fibroblasts (CREF). The description is as above. The settings on record: CREF/GAPDH counter-screens.
Setting [4] is: run 1, dose range 1, individual replicate IC50 per panel.
Setting [5] is: run 2, dose range 1, individual replicate IC50 per panel.

In the case of `CN1C/C(=C/c2ccccc2[N+](=O)[O-])C(=O)/C(=C\c2ccccc2[N+](=O)[O-])C1`, in assay [1], the IC50 result was “inactive”. The IC50 is above 100 µM with GAPDH (setting [4]); 79.4 µM in the assay on GAPDH (setting [5]); 5.91 µM at PEG-3 [2]; 5.67 µM in the assay on PEG-3 [3] (setting [4]); 6.14 µM in the assay on PEG-3 [3] (setting [5]); 27.4 µM in the assay on Rat fibroblasts (CREF) (mean of runs). For the same molecule, the values for the IC50 in the assay with Rat fibroblasts (CREF) (setting [4]) and in the assay on Rat fibroblasts (CREF) (setting [5]) were 30 µM and 24.9 µM, respectively.
As to `COc1cc(Nc2c3ccccc3nc3ccccc23)cc(OC)c1OC`, in assay [1], the IC50 result was “inactive”. Also, the IC50 in the assay on GAPDH (setting [4]) was 33.2 µM; in the assay with GAPDH (setting [5]), 35 µM; at PEG-3 [2], 8.07 µM; with PEG-3 [3] (setting [4]), 8.96 µM; in the assay with PEG-3 [3] (setting [5]), 7.19 µM; in the assay with Rat fibroblasts (CREF) (mean of runs) it was 36.2 µM. The values for the concentration for half-maximal inhibition (IC50) in the assay with Rat fibroblasts (CREF) (setting [4]) and in the assay on Rat fibroblasts (CREF) (setting [5]) were 26.9 µM and 45.5 µM, respectively.
For the molecule `COc1cc2nc(CN3CC=C(c4ccccc4)CC3)[nH]c(=O)c2cc1OC`, the IC50 result in assay [1] is “inactive”. For the same molecule, the IC50 was 60.9 µM in the assay on GAPDH (setting [4]); 62.2 µM in the assay on GAPDH (setting [5]); 6.47 µM on PEG-3 [2]; 7.71 µM in the assay with PEG-3 [3] (setting [4]); 5.22 µM in the assay with PEG-3 [3] (setting [5]); > 100 µM (inactive) in the assay on Rat fibroblasts (CREF) (mean of runs). The IC50 in the assay on Rat fibroblasts (CREF) (setting [4]) and in the assay with Rat fibroblasts (CREF) (setting [5]) was above 100 µM each time.
For the molecule `CC(=O)NC(c1ccc(Cl)cc1Cl)c1ccc2cccnc2c1O` (centres undefined), the IC50 result in assay [1] was “inactive”. The IC50 in the assay on GAPDH (setting [4]) was 31.5 µM; with GAPDH (setting [5]), 61.9 µM; on PEG-3 [2], 1.77 µM; in the assay on PEG-3 [3] (setting [4]) it was 0.852 µM; in the assay with PEG-3 [3] (setting [5]), 2.68 µM; in the assay with Rat fibroblasts (CREF) (mean of runs), > 100 µM (inactive). In addition, the IC50 with Rat fibroblasts (CREF) (setting [4]) and with Rat fibroblasts (CREF) (setting [5]) was above 100 µM in each case.
Consider `O=C(NNC(=O)c1cccnc1SCc1cccc([N+](=O)[O-])c1)c1ccccn1`, for which the IC50 was > 100 µM (inactive) in assay [1]; above 100 µM in the assay with GAPDH (setting [4]); above 100 µM in the assay on GAPDH (setting [5]); 3.6 µM at PEG-3 [2]; 2.76 µM in the assay with PEG-3 [3] (setting [4]); 4.45 µM in the assay on PEG-3 [3] (setting [5]). The IC50 in the assay with Rat fibroblasts (CREF) (mean of runs) is 31.4 µM; with Rat fibroblasts (CREF) (setting [4]) it was 5.66 µM; in the assay on Rat fibroblasts (CREF) (setting [5]), 57.1 µM.
Take `Cc1ccc(-n2c(N)c(C(=O)Nc3c(C)n(C)n(-c4ccccc4)c3=O)c3nc4ccccc4nc32)cc1`: the IC50 in assay [1] is 27.5 µM; in the assay on GAPDH (setting [4]), 26.6 µM; in the assay with GAPDH (setting [5]), 28.5 µM; on PEG-3 [2], 7.52 µM; in the assay on PEG-3 [3] (setting [4]) it was 9.84 µM; in the assay on PEG-3 [3] (setting [5]) it was 5.21 µM. In addition, the results for the IC50 with Rat fibroblasts (CREF) (mean of runs), in the assay with Rat fibroblasts (CREF) (setting [4]) and in the assay on Rat fibroblasts (CREF) (setting [5]) were 43.3 µM, 37.1 µM and 49.4 µM, respectively.
Regarding `Cc1cc(NC(c2ccc(Cl)cc2)c2ccc3cccnc3c2O)no1` (centres undefined), the IC50 was > 100 µM (inactive) in assay [1]; above 100 µM in the assay with GAPDH (setting [4]); above 100 µM in the assay with GAPDH (setting [5]); 3.83 µM on PEG-3 [2]; 7.2 µM in the assay on PEG-3 [3] (setting [4]); 0.472 µM with PEG-3 [3] (setting [5]). Moreover, the IC50 in the assay on Rat fibroblasts (CREF) (mean of runs) was 77.2 µM (inactive); in the assay with Rat fibroblasts (CREF) (setting [4]), above 100 µM; in the assay on Rat fibroblasts (CREF) (setting [5]), 54.4 µM.
Regarding `CCCC(=O)NC(c1ccc(C)cc1)c1ccc2cccnc2c1O` (centres undefined), in assay [1], the IC50 result was “inactive”. Further, the IC50 is above 100 µM in the assay with GAPDH (setting [4]); 74.7 µM with GAPDH (setting [5]); 5.94 µM at PEG-3 [2]; 4.69 µM in the assay with PEG-3 [3] (setting [4]); 7.19 µM with PEG-3 [3] (setting [5]); > 100 µM (inactive) in the assay with Rat fibroblasts (CREF) (mean of runs). Besides, the IC50 in the assay with Rat fibroblasts (CREF) (setting [4]) and with Rat fibroblasts (CREF) (setting [5]) was above 100 µM each time.
Regarding `COc1ccc(-n2c(O)c(/C=N/Nc3nc(C)cc(C)n3)c3ccccc3c2=O)cc1OC`, the IC50 in assay [1] was > 100 µM (inactive); in the assay with GAPDH (setting [4]), above 100 µM; in the assay on GAPDH (setting [5]) it was above 100 µM; at PEG-3 [2] it was 4.99 µM; with PEG-3 [3] (setting [4]), 2.71 µM; in the assay on PEG-3 [3] (setting [5]), 7.28 µM. The IC50 in the assay with Rat fibroblasts (CREF) (mean of runs) was 50.9 µM (inactive); in the assay on Rat fibroblasts (CREF) (setting [4]), 44.5 µM; in the assay on Rat fibroblasts (CREF) (setting [5]), 57.3 µM.
As for `O=C(Nc1ccc(Cc2ccncc2)cc1)c1ccc([N+](=O)[O-])o1`, the IC50 entry in assay [1] was “inactive”. In addition, the IC50 was 56.6 µM with GAPDH (setting [4]); 63.3 µM with GAPDH (setting [5]); 10.5 µM on PEG-3 [2]; 13.2 µM in the assay on PEG-3 [3] (setting [4]); 7.69 µM in the assay on PEG-3 [3] (setting [5]); 14.2 µM in the assay with Rat fibroblasts (CREF) (mean of runs). Also, the results for the IC50 with Rat fibroblasts (CREF) (setting [4]) and with Rat fibroblasts (CREF) (setting [5]) were 14 µM and 14.3 µM, respectively.
In the case of `Cc1oc(-c2ccc3c(c2)OCCO3)cc1C(=O)O`, the IC50 in assay [1] is 5.18 µM; in the assay on GAPDH (setting [4]), 4.06 µM; in the assay with GAPDH (setting [5]), 6.29 µM; at PEG-3 [2], 3.93 µM; with PEG-3 [3] (setting [4]), 3.12 µM; with PEG-3 [3] (setting [5]), 4.73 µM. Also, the IC50 in the assay with Rat fibroblasts (CREF) (mean of runs) is 34.2 µM; with Rat fibroblasts (CREF) (setting [4]) it was 31.2 µM; in the assay on Rat fibroblasts (CREF) (setting [5]), 37.3 µM.
